Earlier results on 3 molecules are cited in patent US20120116113A1, “PROCESS FOR MAKING NEO-ENRICHED p-MENTHANE COMPOUNDS” (priority 2010, published 2012).

Each structure is given as a SMILES string.

For the data set the following is noted: for initial cooling rating: table below paragraph [0137] of U.S. Pat. Appl. 2010/0076080.

`CC(C)[C@@H]1CC[C@@H](C)C[C@@H]1C(=O)Nc1ccc(CC#N)cc1` (single isomer, unassigned) [neo isomer [of G-180]]: the cooling effect result (according to Yelm et al., U.S. Pat. Appl. 2010/0076080) was “potent and long-lasting cooling effect”.

Turning to `CCOC(=O)CNC(=O)C1CC(C)CCC1C(C)C` (stereo not drawn) [neo-WS-5], the initial cooling rating is recorded as 61.9.

Consider `CCOC(=O)CNC(=O)[C@@H]1C[C@H](C)CC[C@H]1C(C)C` [normal WS-5], for which the initial cooling rating was 53.9.
